25 compounds from patent US8778966B2, “Quinolinone derivatives as PARP and tank inhibitors” (Janssen Pharmaceutica, NV, priority 2007, dated 2014) can be followed below.

For one assay, the target named is T1, Human PARP-1 enzyme (Homo sapiens, UniProt P09874).
T1 construct: purchased Trevigen
Put plainly: In vitro Scintillation Proximity Assay (SPA) for PARP-1 inhibitory activity. In kind it is biochemical. The note with it: read-out: in vitro SPA assay PARP-1 pIC50 (converted). The gist of the method: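 SPA assay: nicked-DNA-activated PARP-1 (0.1–0.2 μg/ml) ADP-ribosylates biotinylated histones (2 μg/ml) using [3H]-NAD+, 20 min at RT in Tris pH 8/DTT/MgCl2, stopped with 2 mM NAD+. Blank-subtracted cpm expressed as % control; IC50 by linear interpolation, reported as pIC50 (10−5 to 3×10−9 M tested).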

A further assay concerns PC3 cells. Nature of the assay: EB1 Comet (microtubule disruption) assay. In kind it is cell-based, human. The note with it: Homo sapiens, PC-3, 1 h, 1 hour treatment, read-out: EB1 pLAC (converted). The gist of the method:
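Readout is loss of Eb1 plus-end foci, scored by immunofluorescence microscopy, in PC3 cells after 1 h compound treatment at 37 °C with 0.6% final DMSO. LAC is defined as the lowest concentration leaving at least 50% of cells without Eb1 foci.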

T1 sequence (P09874 whole entry): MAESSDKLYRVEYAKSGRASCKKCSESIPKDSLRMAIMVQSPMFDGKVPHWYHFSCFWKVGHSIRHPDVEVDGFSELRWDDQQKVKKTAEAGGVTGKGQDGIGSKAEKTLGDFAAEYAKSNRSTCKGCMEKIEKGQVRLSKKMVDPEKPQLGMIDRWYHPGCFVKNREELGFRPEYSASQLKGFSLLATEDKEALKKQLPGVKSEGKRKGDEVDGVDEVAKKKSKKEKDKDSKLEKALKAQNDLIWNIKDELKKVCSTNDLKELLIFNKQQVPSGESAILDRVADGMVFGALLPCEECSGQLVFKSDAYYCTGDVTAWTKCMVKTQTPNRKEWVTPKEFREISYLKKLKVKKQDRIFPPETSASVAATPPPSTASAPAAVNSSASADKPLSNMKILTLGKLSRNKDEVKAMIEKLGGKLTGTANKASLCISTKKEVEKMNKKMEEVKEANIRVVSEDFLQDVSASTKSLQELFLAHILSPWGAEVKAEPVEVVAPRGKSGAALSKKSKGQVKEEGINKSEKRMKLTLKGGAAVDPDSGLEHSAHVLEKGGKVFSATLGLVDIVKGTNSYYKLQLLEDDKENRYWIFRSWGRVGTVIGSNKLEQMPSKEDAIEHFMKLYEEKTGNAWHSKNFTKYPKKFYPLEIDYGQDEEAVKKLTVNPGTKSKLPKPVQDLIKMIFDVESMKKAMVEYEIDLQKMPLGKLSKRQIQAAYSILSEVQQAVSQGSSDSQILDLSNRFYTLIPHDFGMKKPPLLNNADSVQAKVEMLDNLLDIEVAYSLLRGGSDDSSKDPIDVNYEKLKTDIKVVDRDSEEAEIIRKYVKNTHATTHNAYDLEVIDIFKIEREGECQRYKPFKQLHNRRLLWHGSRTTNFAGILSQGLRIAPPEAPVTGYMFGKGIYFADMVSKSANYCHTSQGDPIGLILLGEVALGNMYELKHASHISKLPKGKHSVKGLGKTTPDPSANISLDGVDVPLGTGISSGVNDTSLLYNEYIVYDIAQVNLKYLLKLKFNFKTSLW

`CCc1cc2ccc(C(C)(C#N)Cc3cc(Cl)nc(C)n3)cc2[nH]c1=O` (centres unmarked) [Compound 365]: the IC50 at Human PARP-1 enzyme is 0.126 µM. In addition, the minimal effective concentration in the assay with PC3 cells was 0.316 µM.
The matching figures for `CCc1cc2ccc(C(C)(C#N)Cc3cc(OC)c(OC)c(OC)c3)cc2[nH]c1=O` (centres unmarked) [Compound 289]: 0.158 µM and 0.0316 µM.
Take `Cc1cc2ccc(C(C)(C#N)C3CCc4ccccc43)cc2[nH]c1=O` (centres unmarked) [Compound 392]: the IC50 at Human PARP-1 enzyme is 0.126 µM. The minimal effective concentration in the assay on PC3 cells was 0.316 µM.
`CCc1cc2ccc(C(C)(C#N)Cc3cc(OC)nc(OC)c3)cc2[nH]c1=O` (centres unmarked) [Compound 350]: on Human PARP-1 enzyme, the IC50 was 0.0398 µM. For the same compound, in the assay with PC3 cells, the minimal effective concentration is 1 µM.
For the compound `CCc1cc2ccc(C(C)(C#N)Cc3cccc(CCS(C)(=O)=O)c3)cc2[nH]c1=O` (centres unmarked) [Compound 178], on Human PARP-1 enzyme, the IC50 was 0.0631 µM. In the assay on PC3 cells, the minimal effective concentration was 3.16 µM.
Taken in the same sequence, the figures for `CCc1cc2ccc(C(C)(C#N)Cc3cc(C(F)(F)F)ccc3F)cc2[nH]c1=O` (centres unmarked) [Compound 283] were 0.0794 µM and 1 µM.
The matching figures for `Cc1cc2ccc(C(C)(C#N)Cc3cccc(Oc4ccc(F)cc4)c3)cc2[nH]c1=O` (centres unmarked) [Compound 192]: 0.398 µM and 1 µM.
The matching figures for `CCc1cc2ccc(C(C)(C#N)Cc3nc(C#N)cc(OC)n3)cc2[nH]c1=O` (centres unmarked) [Compound 313]: 0.1 µM and 0.0316 µM.
`CCc1cc2ccc(C(C)(C#N)Cc3cc(C#N)nc(OC)c3)cc2[nH]c1=O` (centres unmarked) [Compound 314]: at Human PARP-1 enzyme, the IC50 is 0.0501 µM. For the same compound, the minimal effective concentration in the assay with PC3 cells is 1 µM.
Take `CCc1cc2ccc(C(C#N)(Cc3ccccc3)C3CC3)cc2[nH]c1=O` (centres unmarked) [Compound 29]: the IC50 on Human PARP-1 enzyme was 0.631 µM. In the assay with PC3 cells, the minimal effective concentration was 1 µM.
With `CCc1cc2ccc(C(C)(C#N)Cc3cccc(/C=N/OC)c3)cc2[nH]c1=O` (centres unmarked) [Compound 185], the IC50 on Human PARP-1 enzyme is 0.02 µM. Moreover, in the assay on PC3 cells, the minimal effective concentration is 0.1 µM.
Turning to `CCc1cc2c(OC)cc(C(C)(C#N)Cc3nc(OC)cc(OC)n3)cc2[nH]c1=O` (centres unmarked) [Compound 229], the IC50 on Human PARP-1 enzyme is 0.0631 µM. In the assay with PC3 cells, the minimal effective concentration is 3.16 µM.
Taken in the same sequence, the figures for `CCc1cc2ccc([C@@](C)(C#N)CCOc3ccc(C#N)cc3)cc2[nH]c1=O` (single isomer, unassigned) [Compound 273] were 0.0794 µM and 0.1 µM.
As to `CCc1cc2ccc(C(C)(C#N)Cc3cc(N(C)C)nc(C)n3)cc2[nH]c1=O` (centres unmarked) [Compound 322], at Human PARP-1 enzyme, the IC50 is 0.2 µM. In addition, the minimal effective concentration in the assay with PC3 cells was 1 µM.
Turning to `CCc1cc2ccc(C(C)(C#N)Cc3cccc(OCCCN4CCNCC4)c3)cc2[nH]c1=O` (centres unmarked) [Compound 25], on Human PARP-1 enzyme, the IC50 was 1.58 µM. The minimal effective concentration in the assay on PC3 cells is more than 10 µM.
Taken in the same sequence, the figures for `Cc1cc2ccc(C(C)(C#N)Cc3cccc(C=Cc4ccccc4)c3)cc2[nH]c1=O` (centres unmarked) [Compound 179] were 0.2 µM and 1.78 µM.
The matching figures for `CCc1cc2ccc(C(C)(C#N)Cc3nc(N(C)C)cc(N(C)C)n3)cc2[nH]c1=O` (centres unmarked) [Compound 205]: 0.0794 µM and 1 µM.
The matching figures for `CCc1cc2ccc(C(C)(C#N)Cc3cccc(OCCCC#N)c3)cc2[nH]c1=O` (centres unmarked) [Compound 194]: 0.0251 µM and 1 µM.
With `CCc1cc2ccc(C(C#N)(Cc3ccccc3)c3ccccc3)cc2[nH]c1=O` (centres unmarked) [Compound 27], the IC50 on Human PARP-1 enzyme is 1 µM. Also, in the assay with PC3 cells, the minimal effective concentration is 10 µM.
The matching figures for `CCc1cc2ccc(C(C)(C#N)Cc3cccc(OCCC#N)c3)cc2[nH]c1=O` (centres unmarked) [Compound 195]: 0.0398 µM and 0.0316 µM.
The matching figures for `CCc1cc2ccc(C(C)(C#N)Cc3cccc(N(C)CCc4ccccc4)n3)cc2[nH]c1=O.Cl` (centres unmarked) [Compound 220]: 0.398 µM and 3.16 µM.
`CCc1cc2ccc(C(C)(C#N)Cc3cccc(NC)c3)cc2[nH]c1=O` (centres unmarked) [Compound 257]: on Human PARP-1 enzyme, the IC50 is 0.0794 µM. Further, in the assay on PC3 cells, the minimal effective concentration is 0.316 µM.
Taken in the same sequence, the figures for `Cc1cc2ccc(C(C)(C#N)Cc3cccc(Oc4ccccc4)c3)cc2[nH]c1=O` (centres unmarked) [Compound 305] were 0.2 µM and 3.16 µM.
Consider `CCc1cc2ccc(C(C)(C#N)Cc3cc(F)ccc3F)cc2[nH]c1=O` (centres unmarked) [Compound 280], for which the IC50 on Human PARP-1 enzyme was 0.0501 µM. In addition, in the assay on PC3 cells, the minimal effective concentration was 1 µM.
Taken in the same sequence, the figures for `CCc1cc2ccc(C(C)(C#N)CN3CCN(c4ccc(C#N)cn4)CC3)cc2[nH]c1=O` (centres unmarked) [Compound 377] were 0.0501 µM and 1 µM.
